Experimental data as given in patent US20240108602A1, “TREATMENT OF MENTAL DISORDERS” (GH Research Ireland Limited, priority 2022, published 2024).
Entries after “also recorded” stand apart in the source; their conditions may differ.

Assays:
human hepatocytes [1] = experiment: Metabolite identification after incubation of 5-MeO-DMT with human hepatocytes; details: 5-MeO-DMT free base 10 μM, up to 120 minutes
Description: For incubations with cryopreserved hepatocytes, the 2 mM stock solution was diluted with Leibovitz L-15 medium to a concentration of 20 μM or 2 μM. An aliquot (250 μL) of the 20 μM and 2 μM test substance formulations was added to each hepatocyte incubation sample (250 μL), as appropriate, so that the final test substance concentration in the incubations was 10 μM or 1 μM, respectively, and incubations contained less than 1% (v/v) solvent.
Incubations were performed at ca. 37° C. in a shaking water bath (total incubation volume 0.5 mL). For 1 μM, incubations were terminated after 0, 5, 10, 20, 30, 60 and 120 minutes, by the addition of ice-cold acetonitrile (0.5 mL).
The samples were vortex mixed and centrifuged at ca 13,000 rpm for 10 minutes at room temperature. Following centrifugation, the protein-free supernatants were removed for analysis.
Blank control incubations were carried out with Leibovitz L-15 medium in place of the test substance. No cells control samples were performed with Leibovitz L-15 medium in place of hepatocytes. Aliquots of the blank control samples were taken at 120 minutes, while no cells control samples were taken at 0, 30 and 120 for 1 μM incubations and at 0 and 120 minutes for 10 μM incubations.
All 1 μM incubations were performed in duplicate, while all 10 μM incubations were performed in singlet. All samples were stored at −80° C. (nominal) prior to analysis.
Prior to sample analysis a 100 μL aliquot of each sample was evaporated to near dryness under a steady stream of nitrogen at room temperature, and subsequently reconstituted in 50 μL of mobile phase A (0.1% formic acid in water). Each sample (0, 30 and 120-minute, 10 μM) was analysed using accurate mass LC-MS to determine relative levels of parent compound at each time-point, and determine the profile of metabolites formed. Appropriate blank and control samples were also analysed. The 10 and 60-minute, 10 μM incubation samples were not analysed and were stored at −80° C. (nominal).
Data were interrogated for the presence of metabolites by comparison of retention times with the test substance reference standard and based on the accurate masses of potential metabolites using screening software (UNIFI version 1.9.4), and user defined search parameters. To confirm a suspected metabolite, the measured accurate mass of the peak detected in the sample used for structural elucidation had to be within 5 ppm of the theoretical mass in order to confirm the molecular formula.

human hepatocytes [2] = experiment: Metabolic stability in Hμrel human hepatocyte co-culture model
[3] = 5-MeO-DMT, 5-MIAA and bufotenine in urine, serum and breastmilk of a lactating PPD patient, LC-MS/MS
Description: The second patients was lactating, and, per the clinical trial protocol, breastmilk samples were collected pre-dosing and at multiple timepoints after administration of the last dose. […] Similar analyses were carried out on patient serum and urine samples.

human plasma protein = experiment: Plasma binding of 5-MIAA (unbound fraction); type: in vitro ADME
Description: Binding to human plasma protein was determined. Reported are the unbound fraction (fu) for three replicates as well as the mean unbound fraction, the standard deviation and the mean % recovery (Table 8).

[4] = 1.0 hrs after last dose (6 mg then 12 mg 5-MeO-DMT)

## COc1ccc2[nH]cc(CCO)c2c1 [5-methoxytryptophol, 5-Methoxyindole-3-ethanol]
Human hepatocytes [1]
  Relative Proportion of compound after incubation of 5-MeO-DMT: 25%
Human hepatocytes [2]; 1 μM Stromal cells, 0 h
  relative LC/MS peak area: 100%
Human hepatocytes [2]; 1 μM Stromal cells, 4 h
  relative LC/MS peak area: 97%
Human hepatocytes [2]; 1 μM Stromal cells, 8 h
  relative LC/MS peak area: 107%
Human hepatocytes [2]; 1 μM Stromal cells, 24 h
  relative LC/MS peak area: 94%
Human hepatocytes [2]; 1 μM Stromal cells, 48 h
  relative LC/MS peak area: 102%
Human hepatocytes [2]; 1 μM Stromal cells, 72 h
  relative LC/MS peak area: 104%
Human hepatocytes [2]; 10 μM Stromal cells, 0 h
  relative LC/MS peak area: 100%
Human hepatocytes [2]; 10 μM Stromal cells, 4 h
  relative LC/MS peak area: 99%
Human hepatocytes [2]; 10 μM Stromal cells, 8 h
  relative LC/MS peak area: 105%
Human hepatocytes [2]; 10 μM Stromal cells, 24 h
  relative LC/MS peak area: 86%
Human hepatocytes [2]; 10 μM Stromal cells, 48 h
  relative LC/MS peak area: 98%
Human hepatocytes [2]; 10 μM Stromal cells, 72 h
  relative LC/MS peak area: 104%
Human hepatocytes [2]; human hepatocytes
  metabolic turnover: high metabolic turnover
Human hepatocytes [2]; human hepatocytes, 1 μM
  half-life: 142 min
  in vitro intrinsic clearance: 16.2 μl/min/million cells
Human hepatocytes [2]; stromal cell controls
  disappearance with stromal cell controls: no disappearance

## CN(C)CCc1c[nH]c2ccc(O)cc12 [Bufotenine]
Human hepatocytes [1]
  Relative Proportion of compound after incubation of 5-MeO-DMT: 5%
[3]; [4]
  Breastmilk concentration: BLQ (BLQ: Below limit of quantification. The lower limit of quantification is 25 pg/ml for both 5-MeO-DMT and 5-MIAA in both serum and breastmilk; it is 25 pg/ml in urine for 5-MeO-DMT and 250 pg/ml for 5-MIAA in urine.)
  Serum concentration: BLQ (BLQ: Below limit of quantification. The lower limit of quantification is 25 pg/ml for both 5-MeO-DMT and 5-MIAA in both serum and breastmilk; it is 25 pg/ml in urine for 5-MeO-DMT and 250 pg/ml for 5-MIAA in urine.)
[3]; 2.5 hrs after last dose
  Breastmilk concentration: BLQ (BLQ: Below limit of quantification. The lower limit of quantification is 25 pg/ml for both 5-MeO-DMT and 5-MIAA in both serum and breastmilk; it is 25 pg/ml in urine for 5-MeO-DMT and 250 pg/ml for 5-MIAA in urine.)
  Serum concentration: BLQ (BLQ: Below limit of quantification. The lower limit of quantification is 25 pg/ml for both 5-MeO-DMT and 5-MIAA in both serum and breastmilk; it is 25 pg/ml in urine for 5-MeO-DMT and 250 pg/ml for 5-MIAA in urine.)
  Urine concentration: 32.3 pg/mL
[3]; 8.5 hrs after last dose
  Breastmilk concentration: BLQ (BLQ: Below limit of quantification. The lower limit of quantification is 25 pg/ml for both 5-MeO-DMT and 5-MIAA in both serum and breastmilk; it is 25 pg/ml in urine for 5-MeO-DMT and 250 pg/ml for 5-MIAA in urine.)
  Urine concentration: BLQ (BLQ: Below limit of quantification. The lower limit of quantification is 25 pg/ml for both 5-MeO-DMT and 5-MIAA in both serum and breastmilk; it is 25 pg/ml in urine for 5-MeO-DMT and 250 pg/ml for 5-MIAA in urine.)
[3]; 24.0 hrs after last dose
  Breastmilk concentration: BLQ (BLQ: Below limit of quantification. The lower limit of quantification is 25 pg/ml for both 5-MeO-DMT and 5-MIAA in both serum and breastmilk; it is 25 pg/ml in urine for 5-MeO-DMT and 250 pg/ml for 5-MIAA in urine.)
  Serum concentration: BLQ (BLQ: Below limit of quantification. The lower limit of quantification is 25 pg/ml for both 5-MeO-DMT and 5-MIAA in both serum and breastmilk; it is 25 pg/ml in urine for 5-MeO-DMT and 250 pg/ml for 5-MIAA in urine.)
  Urine concentration: BLQ (BLQ: Below limit of quantification. The lower limit of quantification is 25 pg/ml for both 5-MeO-DMT and 5-MIAA in both serum and breastmilk; it is 25 pg/ml in urine for 5-MeO-DMT and 250 pg/ml for 5-MIAA in urine.)
[3]; 120.0 hrs after last dose
  Breastmilk concentration: BLQ (BLQ: Below limit of quantification. The lower limit of quantification is 25 pg/ml for both 5-MeO-DMT and 5-MIAA in both serum and breastmilk; it is 25 pg/ml in urine for 5-MeO-DMT and 250 pg/ml for 5-MIAA in urine.)
  Serum concentration: BLQ (BLQ: Below limit of quantification. The lower limit of quantification is 25 pg/ml for both 5-MeO-DMT and 5-MIAA in both serum and breastmilk; it is 25 pg/ml in urine for 5-MeO-DMT and 250 pg/ml for 5-MIAA in urine.)
  Urine concentration: BLQ (BLQ: Below limit of quantification. The lower limit of quantification is 25 pg/ml for both 5-MeO-DMT and 5-MIAA in both serum and breastmilk; it is 25 pg/ml in urine for 5-MeO-DMT and 250 pg/ml for 5-MIAA in urine.)
[3]; any time point
  detection in serum and breastmilk: absence of bufotenine; also recorded: not detected
[3]; −24.0 hrs (pre-dosing)
  Breastmilk concentration: BLQ (BLQ: Below limit of quantification. The lower limit of quantification is 25 pg/ml for both 5-MeO-DMT and 5-MIAA in both serum and breastmilk; it is 25 pg/ml in urine for 5-MeO-DMT and 250 pg/ml for 5-MIAA in urine.)
  Serum concentration: BLQ (BLQ: Below limit of quantification. The lower limit of quantification is 25 pg/ml for both 5-MeO-DMT and 5-MIAA in both serum and breastmilk; it is 25 pg/ml in urine for 5-MeO-DMT and 250 pg/ml for 5-MIAA in urine.)
  Urine concentration: BLQ (BLQ: Below limit of quantification. The lower limit of quantification is 25 pg/ml for both 5-MeO-DMT and 5-MIAA in both serum and breastmilk; it is 25 pg/ml in urine for 5-MeO-DMT and 250 pg/ml for 5-MIAA in urine.)

## CC(=O)CC(c1ccccc1)c1c(O)c2ccccc2oc1=O (centres unmarked) [Warfarin, reference compound]
Human plasma protein
  Mean % Recovery: 78.1%
  Mean fu: 0.0377
  unbound fraction (fu), Replicate 1: 0.0418
  unbound fraction (fu), Replicate 2: 0.0356
  unbound fraction (fu), Replicate 3: 0.0358

## COc1ccc2[nH]cc(CC[N+](C)(C)[O-])c2c1 [5-MeO-DMT-N-oxide]
Human hepatocytes [1]
  Relative Proportion of compound after incubation of 5-MeO-DMT: 1%
